Assay results taken from patent US12655116B2, “Substituted isophthalic acid diamides” (Bayer Aktiengesellschaft, priority 2020, dated 2026).

Tests used:
[1] = tested on: ABUTH; assay: Post-emergence herbicidal action against ABUTH; assay type: in vivo, Abutilon theophrasti; details: visual assessment about 3 weeks after treatment vs untreated controls
How it was run: (§1)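 Weeds in sandy loam soil received a post-emergence spray at the one-leaf stage. Compounds were applied as WP or EC in water, 600 to 800 l/ha, with 0.2% wetting agent. Activity in % was judged visually after roughly 3 weeks against untreated plants.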

[2] = tested on: SETVI; assay: Post-emergence herbicidal action against SETVI; assay type: in vivo, Setaria viridis; details: dosage 20 g/ha
How it was run: as §1

[3] = tested on: MATIN; assay: Post-emergence herbicidal action against MATIN; assay type: in vivo, Matricaria inodora; details: dosage 20 g/ha
How it was run: as §1

[4] = tested on: VIOTR; assay: Pre-emergence herbicidal action against VIOTR; assay type: in vivo, Viola tricolor
How it was run: (§2)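 Visual rating at 3 weeks vs untreated pots; 0–100% scale, 100% = plants died. Treatment: aqueous WP/EC spray onto covering soil, 600–800 l/ha, 0.2% wetter, seeds in sandy loam.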

[5] = tested on: MATIN; assay: Pre-emergence herbicidal action against MATIN; assay type: in vivo, Matricaria inodora
How it was run: as §2

[6] = tested on: VIOTR; assay: Post-emergence herbicidal action against VIOTR; assay type: in vivo, Viola tricolor; details: 20 g/ha
How it was run: as §1

[7] = tested on: ALOMY; assay: Pre-emergence herbicidal action against ALOMY; assay type: in vivo, Alopecurus myosuroides
How it was run: as §2

[8] = tested on: SETVI; assay: Pre-emergence herbicidal action against SETVI; assay type: in vivo, Setaria viridis; details: dosage 80 g/ha
How it was run: as §2

[9] = tested on: AMARE; assay: Pre-emergence herbicidal action against AMARE; assay type: in vivo, Amaranthus retroflexus
How it was run: as §2

[10] = tested on: AVEFA; assay: Pre-emergence herbicidal action against AVEFA; assay type: in vivo, Avena fatua
How it was run: as §2

[11] = tested on: PHBPU; assay: Pre-emergence herbicidal action against PHBPU; assay type: in vivo, Pharbitis purpurea; details: dosage 80 g/ha
How it was run: as §2

[12] = tested on: AMARE; assay: Post-emergence herbicidal action against AMARE; assay type: in vivo, Amaranthus retroflexus; details: 20 g/ha, visual assessment about 3 weeks after treatment, 100% = plants have died, 0% = like control plants
How it was run: as §1

[13] = tested on: LOLRI; assay: Pre-emergence herbicidal action against LOLRI; assay type: in vivo, Lolium rigidum; details: 80 g/ha
How it was run: as §2

[14] = tested on: PHBPU; assay: Post-emergence herbicidal action against PHBPU; assay type: in vivo, Pharbitis purpurea
How it was run: as §1

[15] = tested on: ALOMY; assay: Post-emergence herbicidal action against ALOMY; assay type: in vivo, Alopecurus myosuroides; details: dosage 20 g/ha, visual assessment about 3 weeks after treatment vs untreated controls
How it was run: as §1

[16] = tested on: POLCO; assay: Pre-emergence herbicidal action against POLCO; assay type: in vivo, Polygonum convolvulus; details: dosage 80 g/ha
How it was run: as §2

[17] = tested on: ABUTH; assay: Pre-emergence herbicidal action against ABUTH; assay type: in vivo, Abutilon theophrasti
How it was run: as §2

[18] = tested on: ECHCG; assay: Post-emergence herbicidal action against ECHCG; assay type: in vivo, Echinochloa crus-galli; details: dosage 20 g/ha
How it was run: as §1

[19] = tested on: VERPE; assay: Pre-emergence herbicidal action against VERPE; assay type: in vivo, Veronica persica
How it was run: as §2

[20] = tested on: ECHCG; assay: Pre-emergence herbicidal action against ECHCG; assay type: in vivo, Echinochloa crus-galli; details: 80 g/ha
How it was run: as §2

[21] = tested on: DIGSA; assay: Pre-emergence herbicidal action against DIGSA; assay type: in vivo, Digitaria sanguinalis; details: Digitaria sanguinalis, 504 h
How it was run: as §2

[22] = 20 g/ha, scored visually after 3 weeks, 100% = plants have died, 0% = like control plants
[23] = 80 g/ha, scored visually after 3 weeks vs untreated controls (100% = plants have died, 0% = like control plants)

CCc1c(C(=O)Nc2nnnn2CC)ccc(C(F)(F)F)c1C(=O)NCC(F)F [Example 2-276]
Post-emergence action against ABUTH in % ([1]; dosage 5 g/ha): 80%
Post-emergence action against ABUTH in % ([1]; dosage 20 g/ha): 80%
Post-emergence action against SETVI in % [2]: 80%
Post-emergence action against MATIN in % [3]: 90%
Pre-emergence action against VIOTR in % ([4]; dosage 20 g/ha): 100%
Pre-emergence action against VIOTR in % ([4]; dosage 80 g/ha): 100%
Pre-emergence action against MATIN in % ([5]; dosage 20 g/ha): 100%
Pre-emergence action against MATIN in % ([5]; dosage 80 g/ha): 100%
Post-emergence action against VIOTR in % [6]: 80%
Pre-emergence action against ALOMY [7, 22]: 90%
Pre-emergence action against ALOMY (herbicidal activity) ([7]; 80 g/ha, pre-emergence, scored visually after 3 weeks vs untreated controls (100% = plants have died, 0% = like control plants)): 90%
Pre-emergence action against SETVI in % [8]: 100%
Pre-emergence action against AMARE in % ([9]; 20 g/ha, scored visually after 3 weeks vs untreated controls, 100% = plants have died, 0% = like control plants): 100%
Pre-emergence action against AMARE in % [9, 23]: 100%
Pre-emergence action against AVEFA [10, 22]: 80%
Pre-emergence action against AVEFA in % ([10]; 80 g/ha, pre-emergence): 90%
Pre-emergence action against PHBPU in % [11]: 90%
Post-emergence action at 20 g/ha against AMARE in % [12]: 90%
Pre-emergence action against LOLRI in % [13]: 80%
Post-emergence action against PHBPU in % ([14]; dosage 5 g/ha): 80%
Post-emergence action against PHBPU in % ([14]; dosage 20 g/ha): 90%
Post-emergence action against ALOMY in % [15]: 80%
Pre-emergence action against POLCO in % [16]: 90%
Pre-emergence action against ABUTH (herbicidal activity) [17, 23]: 100%
Pre-emergence action against ABUTH (herbicidal activity in percent) ([17]; dosage 20 g/ha, scored visually after 3 weeks vs untreated controls, 100% = plants have died, 0% = like control plants): 100%
Post-emergence action against ECHCG in % [18]: 90%
Pre-emergence action against VERPE in % ([19]; dosage 80 g/ha): 80%
Pre-emergence action against ECHCG in % [20]: 80%

CCn1nnnc1NC(=O)c1ccc(C(F)F)c(C(=O)NC(C)C)c1Cl [Example 2-155]
pest or weed control at 5 g/ha ([1]; Abutilon theophrasti, 504 h, dosage 5 g/ha): 80%
pest or weed control at 20 g/ha ([1]; Abutilon theophrasti, 504 h, dosage 20 g/ha): 80%
pest or weed control at 20 g/ha ([3]; Tripleurospermum inodorum, 504 h): 90%
pest or weed control at 20 g/ha ([21]; dosage 20 g/ha): 100%
pest or weed control at 80 g/ha ([21]; dosage 80 g/ha): 100%
pest or weed control at 20 g/ha ([4]; Viola tricolor, 504 h, dosage 20 g/ha): 90%
pest or weed control at 80 g/ha ([4]; Viola tricolor, 504 h, dosage 80 g/ha): 100%
pest or weed control at 20 g/ha ([5]; Tripleurospermum inodorum, 504 h, dosage 20 g/ha): 100%
pest or weed control at 80 g/ha ([5]; Tripleurospermum inodorum, 504 h, dosage 80 g/ha): 100%
pest or weed control at 20 g/ha ([6]; Viola tricolor, 504 h): 80%
pest or weed control at 80 g/ha ([7]; Alopecurus myosuroides, 504 h, 80 g/ha, pre-emergence, scored visually after 3 weeks vs untreated controls (100% = plants have died, 0% = like control plants)): 100%
pest or weed control at 20 g/ha ([7]; Alopecurus myosuroides, pre-emergence, 504 h, 20 g/ha, scored visually after 3 weeks, 100% = plants have died, 0% = like control plants): 80%
pest or weed control at 80 g/ha ([8]; Setaria viridis, 504 h): 90%
pest or weed control at 20 g/ha ([9]; Amaranthus retroflexus, 504 h, 20 g/ha, scored visually after 3 weeks vs untreated controls, 100% = plants have died, 0% = like control plants): 100%
pest or weed control at 80 g/ha ([9]; Amaranthus retroflexus, 504 h, 80 g/ha, scored visually after 3 weeks vs untreated controls, 100% = plants have died, 0% = like control plants): 100%
pest or weed control at 80 g/ha ([10]; Avena fatua, 504 h, 80 g/ha, pre-emergence): 90%
pest or weed control at 80 g/ha ([11]; Ipomoea purpurea, 504 h): 100%
pest or weed control at 20 g/ha ([12]; Amaranthus retroflexus, 504 h): 90%
pest or weed control at 80 g/ha ([13]; Lolium rigidum, 504 h): 80%
pest or weed control at 20 g/ha ([14]; Ipomoea purpurea, 504 h, dosage 20 g/ha): 80%
pest or weed control at 20 g/ha ([15]; Alopecurus myosuroides, 504 h): 90%
pest or weed control at 80 g/ha ([16]; Fallopia convolvulus, 504 h): 90%
pest or weed control at 80 g/ha ([17]; Abutilon theophrasti, 504 h, 80 g/ha, scored visually after 3 weeks vs untreated controls (100% = plants have died, 0% = like control plants)): 100%
pest or weed control at 20 g/ha ([17]; Abutilon theophrasti, 504 h, dosage 20 g/ha, scored visually after 3 weeks vs untreated controls, 100% = plants have died, 0% = like control plants, read-out: Pre-emergence action against ABUTH (herbicidal activity in percent)): 100%
pest or weed control at 20 g/ha ([19]; Veronica persica, 504 h, dosage 20 g/ha): 80%
pest or weed control at 80 g/ha ([19]; Veronica persica, 504 h, dosage 80 g/ha): 100%
pest or weed control at 80 g/ha ([20]; Echinochloa crus-galli, 504 h): 100%
